Laboratory results taken from patent publication US9901536B2, “Composition for improving skin, containing pomegranate concentrate as active ingredient” (HLSCIENCE CO., LTD., priority 2014, dated 2018).
Several values for one entry are separate records, joined by “and”; a condition that tells them apart may be missing. Equal values may be shown once. Each block holds one compound with its values, some of them ahead of it.

How the values were obtained:
[1] = test system: elastase; experiment: Elastase inhibition assay; assay type: biochemical, human; settings: 10 μM
Experimental: The HDF-N fibroblasts were used to measure the effect of the test solution on elastase activity. For this, the cultured HDF-N cells were treated with 0.2 M Tris-HCl (pH 8.0) containing 0.1% Triton X-100 and lysed by sonication. After centrifuging at 3,000 rpm for 20 minutes and taking the supernatant, the activity of the enzyme was measured by quantifying it and the total protein quantity. For measurement of the elastase activity, the homogenized fibroblasts were treated with 200 μg/mL elastase, 0.2 M Tris-HCl buffer and the sample at different concentrations. After adding 50 mM STANA, a substrate specific for elastase, and incubating at 37° C., absorbance was measured at 405 nm. The degree of elastase activity inhibition was compared with a control group not treated with the test solution. Phosphoramidon was used as a positive control group.

[2] = test system: procollagen synthesis in HDF-N cells; experiment: Procollagen synthesis (PIP EIA) in HDF-N cells; assay type: cell-based, human; settings: 10 ng/ml, 24 h
Experimental: (§1) For testing of wrinkle improvement, normal human primary dermal fibroblasts, neonatal (HDF-N) derived from the human neonatal foreskin were used. The cells were seeded onto the bottom of a culture dish and cultured at 37° C. in a 5% carbon dioxide incubator after adding the fibroblast basal medium (FBM, Lonza, CC-3131) containing 0.1% insulin, 0.1% rhFGF, 0.1% gentamicin and 2% FBS.
In order to measure the effect of promoting procollagen synthesis of the test solution, HDF-N cells were seeded onto a 48-well plate with 1×10^4 cells/well and then cultured for 24 hours. Then, after maintaining a starvation state for 24 hours, the cells were treated with the test solution diluted with the cell culture medium FBM (without supplements) at different concentrations and then cultured for 24 hours. The cultured cells were recovered and the quantity of procollagen was measured using the procollagen type I c-peptide (PIP) EIA kit (Takara, MK101). The cells adherent to the bottom were washed with PBS and lysed with 1 N NaOH to determine the total amount of proteins. Then, the quantity of procollagen per given quantity of proteins was calculated.

[3] = test system: melanin synthesis in Melan-a cells; experiment: Inhibition of melanin synthesis in Melan-a cells; assay type: cell-based, mouse; settings: 100 μM, 6 days
Experimental: For evaluation of skin-whitening effect, Melan-a cells derived from C57BL/6J (black, a/a) mouse, provided by Dr. Dorothy C Benette (St George's Hospital, London, UK), were used as an immortalized cell line (Bennett D C, Cooper P J, Hart I R. A line of non-tumorigenic mouse melanocyte, syngeneic with the B16 melanoma and requiring a tumor promoter for growth. Int J Cancer 1987; 39: 414-418). The cells were cultured at 37° C. in a 5% carbon dioxide incubator after adding the RPMI 1640 medium containing 10% fetal bovine serum, 50 U/mL penicillin, 50 μg/mL streptomycin, 200 nM phorbol 12-myristate 13-acetate (PMA).
Melan-a cells were seeded onto a 24-well plate with 3×10^4 cells/well. After culturing the cells in an incubator for 24 hours so that the cells adhered well to the plate, the test solution diluted with a culture medium to different concentrations were added to the respective wells. The test sample was treated once in 3 days, for a total of 6 days. […] The cells were lysed with 1 N NaOH and then centrifuged. After separating the supernatant, the total amount of proteins was quantified by measuring absorbance at 405 nm. The melanin content was determined from the protein quantity.

[4] = test system: hyaluronan synthesis in HaCaT cells; experiment: Hyaluronan synthesis in keratinocytes by ELISA; assay type: cell-based, human; settings: 20 mM, 24 h
Experimental: Human keratinocytes (HaCaT cells, ATCC) were seeded onto the bottom of a culture dish and cultured at 37° C. in a 5% carbon dioxide incubator after adding Dulbecco's modified Eagle's medium (DMEM, Welgene, Korea) containing penicillin (100 IU/mL), streptomycin (10 μg/mL) and 10% FBS.
The skin-moisturizing effect of the samples was evaluated by measuring the degree of hyaluronan synthesis in keratinocytes by ELISA. For this, the HaCaT cells were seeded onto a plate at 5×10^4 cells/well and cultured for 24 hours. 24 hours later, the cells were treated with the test samples diluted with the DMEM cell culture medium (without supplements) and cultured for 24 hours. The cultured cells were recovered and the quantity of hyaluronan was measured by hyaluronan ELISA (R&D Systems, DY3614). The cells adherent to the bottom were washed with PBS and lysed with 1 N NaOH to determine the total amount of proteins. Then, the quantity of hyaluronan per given quantity of proteins was calculated.
The protein quantity was measured using a Bio-Rad DC protein kit according to the Lowry method.

[5] = test system: MMP-1; experiment: Inhibition of UV-induced MMP-1 expression in HDF-N cells; assay type: cell-based, human; settings: UVA 5 J/cm^2, 1 μM
Experimental: as §1
The effect of the test solution on UV-induced MMP-1 expression was evaluated in order to evaluate the wrinkle-improving effect of the sample by measuring the activity of matrix metalloproteinase (MMP-1) by immuno-ELISA assay. HDF-N cells were seeded onto a 24-well plate with 2×10^4 cells/well and then cultured for 24 hours. 24 hours later, after discarding the medium and washing with DPBS, 200 μL of DPBS was added and 5 J/cm^2 of UV-A was irradiated. After treating the cells with the sample diluted to an adequate concentration, the cells were cultured for 24 hours. Then, the culture medium was taken and the quantity of MMP-1 was measured with the human total MMP-1 ELISA kit (R&D Systems, DY901). The measured quantity of MMP-1 was calibrated with the total protein quantity.

- elastase activity, % control [1]: 74.90 ± 5.962 % control
- elastase activity, % control ([1]; listed as phosphoramidon): 74.9 % control
Compound: CC(C)C[C@H](NP(=O)(O)O[C@@H]1O[C@@H](C)[C@H](O)[C@@H](O)[C@H]1O)C(=O)N[C@@H](Cc1c[nH]c2ccccc12)C(=O)O [Phosphoramidon]

Compound: Transforming growth factor-β [TGF-β]
- procollagen production, % control [2]: 150.8 % control and 150.88 ± 5.366 % control

Compound: OC[C@H]1O[C@@H](Oc2ccc(O)cc2)[C@H](O)[C@@H](O)[C@@H]1O [Arbutin]
- melanin content, % control [3]: 73.54 ± 5.397 % control
- melanin content, % control ([3]; listed as arbutin): melanin synthesis was inhibited

Compound: CC(=O)N[C@H]1C(O)O[C@H](CO)[C@@H](O)[C@@H]1O (stereo partly drawn) [NAG, N-Acetyl-D-glucosamine]
- hyaluronan, % control [4]: 224.8 % control and 224.85 ± 16.937 % control

Compound: CC1=C(/C=C/C(C)=C/C=C/C(C)=C/C(=O)O)C(C)(C)CCC1 [Retinoic acid]
- MMP-1 production, % UV− [5]: 171.68 ± 10.422 % UV−
- MMP-1 production, % UV− ([5]; listed as retinoic acid): 171.6 % UV−
